# In patent publication US7494996B2 (priority 2000, dated 2009):
# Assays:
# Sphaerotheca fuliginea = assay: Cucumber Powdery Mildew (CPM) protectant test in the greenhouse; type: in vivo; settings: 300 g/ha, 100 is total disease control, 0 is no disease control
# Procedure, shortened: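 Compounds in acetone-methanol-water (1:1:2) sprayed onto cucumber cv. "Bush Champion" (cotyledons plus one true leaf, 13 days old), dried 4 h. Inoculated 1 day later with 2×10^5 spores/ml; disease control (%) rated after 7 days in greenhouse.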
# Southern Armyworm = assay: Protocol 1 Southern Armyworm (AW) foliar spray test; type: in vivo, Spodoptera eridania
# Description: (§1) A test solution containing 1250 parts per million (ppm) was prepared by dissolving the test compound in […] of a second solvent (acetone: water, 1:1) to give an acetone:water: methanol system of 50: 40:10.
# (§2) The enclosed spraying chamber consisted of a single spray nozzle mounted on a boom moving at a fixed speed and distance over stationary targets. The vertical distance from the nozzle tip to the targets was adjusted to give rates varying from 150 g/ha to 600 g/ha
# (§3) Individual fully expanded primary lima bean (Phaseolus limensis) leaves were placed bottom side up on moistened pieces of filter paper in Petri dishes. The leaves were sprayed with the test solutions and allowed to dry. The dishes were infested with 5 third instar larvae of the southern armyworm, covered with the lids, and held at 27° C. Armyworm control was rated by visual inspection after 48 hours. […] A rating of 0 indicated no dead larvae and normal feeding. Intermediate control was indicated by intermediate ratings.
# Two-Spotted Spider Mite = assay: Protocol 1 Two-Spotted Spider Mite (MTA) foliar spray test; type: in vivo, Tetranychus urticae; settings: percentage of mites killed 1-day post-treatment
# Description: as §1, §2
# A pad of moistened cotton was placed in a Petri dish. A 1-inch square section cut from a fully expanded primary lima bean (Phaseolus limensis) leaf was positioned bottom side up on the moist cotton. The leaf square was infested with approximately 50 adult female mites. The dishes were sprayed with the test solutions and held at 27° C. for mortality determination 1-day post-treatment. The percentage of mites killed were rated from 100% (all dead) to 0% (all alive).
# Pyricularia oryzae = assay: whole plant or invertebrate; type: in vivo; settings: protectant, 300 g/ha, greenhouse; 100 is total disease control, 0 is no disease control
# Mexican Bean Beetle = assay: Protocol 1 Mexican Bean Beetle (BB) foliar spray test; type: in vivo, Epilachna verivestis; settings: control rated after 48 hours (100 = all larvae dead)
# Description: as §1, §2
# as §3, with “mexican bean beetle,” for “southern armyworm,”, “Bean beetle” for “Armyworm”
SMILES,"Cucumber Powdery Mildew (CPM) protectant fungicide data, percent control (Sphaerotheca fuliginea) [percent control]","AW (Southern Armyworm; Protocol 1, DOSE 300)","MTA (Two-Spotted Spider Mite; Protocol 1, DOSE 300) [%]","Rice Blast (RB) protectant fungicide data, percent control (Pyricularia oryzae) [percent control]","BB (Mexican Bean Beetle; Protocol 1, DOSE 300)","AW (Southern Armyworm; Protocol 1, DOSE 150)","MTA (Two-Spotted Spider Mite; Protocol 1, DOSE 150) [%]","BB (Mexican Bean Beetle; Protocol 1, DOSE 150)"
C=CCn1nc(-c2ccc(Cl)cc2)ncc1=O [Compound 236],90,0,100,99,100,–,–,–
CCC(C)n1nc(C2CCCCC2)ncc1=O (centres unmarked) [Compound 255],0,–,–,50,–,0,100,90
O=C1CNC(c2ccccn2)=NN1CC(F)(F)F [Compound 52],0,–,–,50,–,0,100,0
CCCCN1N=C(c2ccc(Cl)cc2)NCC1=O [Compound 50],80,–,–,100,–,0,75,0
CCCCCn1nc(-c2ccc(Cl)cc2)ncc1=O [Compound 234],80,0,100,100,0,–,–,–
O=C1CNC(c2cccc(Cl)c2)=NN1CC(F)(F)F [Compound 37],75,100,75,95,75,–,–,–
O=c1cnc(-c2ccc(Cl)cc2)nn1Cc1ccccc1 [Compound 240],75,50,100,95,75,–,–,–
CCC(C)N1N=C(C2CCCCC2)NCC1=O (centres unmarked) [Compound 48],0,–,–,50,–,0,75,0
O=c1cnc(-c2cccc(Cl)c2)nn1CC(F)(F)F [Compound 245],0,100,100,99,100,–,–,–
O=c1cnc(C2CCCCC2)nn1CC(F)(F)F [Compound 251],0,–,–,75,–,0,75,50
